Source: ChEMBL document CHEMBL4513101, “Naegleria gruberi Pathogen Box compounds screening” (2021)
Activity calls are given as the source filed them. Rule as the data show it: active = inhibition of 80% or more and inactive = less.

System: Naegleria gruberi
Assay: microbe, parasite or virus in culture
Assay type: functional
Details: NEG-M, CONC 10 uM
Description: Growth inhibiting activity of Naegleria gruberi in vitro

Structure (SMILES) | inhibition at 10 µM
COC(=O)c1c(NC(=O)c2cc3ccccc3oc2=O)sc2c1CCN(Cc1ccccc1)C2 | 17.2% (not active)
Cc1cc(C(=O)Nc2ccc(-c3ccccc3)cc2)no1 | 35.7% (not active)
O=C(NCc1cc(Cl)cc(Cl)c1)c1c(C(F)(F)F)nc2ccccn12 | 28.4% (not active)
c1ccc(-c2[nH]c3ccccc3c2C(c2ccccn2)N2CCCC2)cc1 (stereo not given) | 32.7% (not active)
O=C(C1CCN(c2nnc(-n3cccc3)s2)CC1)N1CCC(Cc2ccccc2)CC1 | 31.1% (not active)
Cc1nc(-c2ccccn2)nc(N(C)CCc2ccccc2)c1Cl | 21.1% (not active)
COc1cccc(CC(=O)N2CCC(n3c(C)nc4ccc(F)cc43)CC2)c1 | 19.3% (not active)
N#Cc1ccc(-c2ccc(OCC(N)=O)cc2)cc1 | 33.5% (not active)
Cc1ccc2nc(C)c(-c3ccn(Cc4ccccc4)n3)n2c1 | 9.5% (not active)
CC(C)C(NC(=O)Cc1cccc2ccccc12)C(=O)Nc1cccc(C#N)c1 (stereo not given) | 37.5% (not active)
CCN(CC)CCCCCCNc1cc(OC)cc2c(C)ccnc12 [SITAMAQUINE] | 40.1% (not active)
Cc1ncc(-c2ccnc(Nc3ccc(S(C)(=O)=O)cc3)n2)n1C(C)C [AZD-5438] | 47.7% (not active)
CCOc1ccc2cc(-c3nn(C(C)(C)C)c(N)c3C(N)=O)cnc2c1 | 92.5% (active)
CCc1ccc([C@@H]2C[C@H](C(F)(F)F)n3ncc(C(=O)NCc4ccc(OC)cc4)c3N2)cc1 | 29% (not active)
O=C(N[C@H](Cc1ccccc1)C(=O)Nc1ccccc1N1CCOCC1)c1cccs1 | 29.6% (not active)
Nc1ccc2ncnc(Nc3ccc(OCc4cccc(F)c4)c(Cl)c3)c2c1 | 10.6% (not active)
Cc1cccc(C(=O)Nc2ccnc(N(C)C3CCN(CC(C)C)CC3)c2)c1 | 35.1% (not active)
CC(C)(C)OC(=O)N1CCC(Cn2nc(-c3cnc4ccccc4c3)c3c(N)ncnc32)CC1 | 57.8% (not active)
CCN(CC)S(=O)(=O)c1ccc(Cl)c(C(=O)Nc2ccc3nc(C)sc3c2)c1 | 84.7% (active)
CCOC(=O)c1c(NC(=O)c2c(F)c(F)c(F)c(F)c2F)sc(C(N)=O)c1C | 5.8% (not active)
c1ccc(Oc2ccc(-c3cc(N4CCNCC4)[nH]n3)cc2)cc1 | 0% (not active)
Cc1nn(C)c(C)c1NS(=O)(=O)c1c(Cl)cc(-c2ccnc(N3CCNCC3)c2)cc1Cl | 58.2% (not active)

Structure (SMILES) | inhibition at 10 µM
Cc1noc(C)c1COc1cccc(C(=O)N=c2[nH]cccc2C)c1 | 36.7% (not active)
CC(C)C(C(=O)Nc1ccc(S(=O)(=O)N(C)C)cc1)c1ccc(Cl)cc1 (stereo not given) | 41% (not active)
FC(F)(F)c1ccc(N(c2cccnc2)C2CCN(c3ccc(C(F)(F)F)cn3)CC2)cc1 | 80.4% (active)
c1coc(CNc2nc(N3CCCCC3)nc3ccccc23)c1 | 56.5% (not active)
Cc1ccc2c(c1C)NC(=O)C21NN=C(c2ccccc2)S1 (stereo not given) | 20.7% (not active)
CC(C)(C)n1nc(-c2ccccc2)c2c(N)ncnc21 | 55.1% (not active)
O=C(NCCc1ccn(-c2ccccc2)n1)C1CCCCC1 | 6.2% (not active)
CC(=O)Nc1ccc(NC(=O)c2cc(-c3cc(Cl)ccc3O)n[nH]2)cc1 | 8.8% (not active)
COc1ccc(CN2CCOc3ccc(C(C)(O)CN(C)C)cc3C2)cc1C (stereo not given) | 26.3% (not active)
CC(C)n1ncc2c(C(=O)NCC(c3cccs3)N3CCOCC3)cc(-c3ccccc3)nc21 (stereo not given) | 48.6% (not active)
FC(F)(F)c1nnc2ccc(Cl)nn12 | 16.8% (not active)
Cc1cc(C)n(-c2ccc(NC(=O)C3CCN(Cc4cnc(C)s4)CC3)cc2)n1 | 6.1% (not active)
Cc1cnc(N2CCN[C@@H](Cc3ccccc3)C2)nc1Oc1ccc(-n2ccnc2)cc1 | 9.8% (not active)
Cc1cc(C2=NOC(c3cc(Cl)c(F)c(Cl)c3)(C(F)(F)F)C2)ccc1C(=O)NCc1ccc2c(c1)C(C)(C)OB2O (stereo not given) | 47.6% (not active)
Clc1ccc(-n2cc(COc3ccnc4ccccc34)nn2)cc1 | 75.2% (not active)
Cc1ccc(NC(=O)c2nc[nH]c2C(=O)Nc2nc3ccccc3[nH]2)c(C)c1 | 22.8% (not active)
CC(C)(C)[C@H]1CC[C@H](CC2=C(O)C(=O)c3ccccc3C2=O)CC1 [BUPARVAQUONE] | 92.9% (active)
COc1cccc(-n2nnnc2S(C)(=O)=O)c1 | 78.8% (not active)
CC(C)(C)OC(=O)N1CCN(c2cc(-c3ccc(Oc4ccccc4)cc3)n[nH]2)CC1 | 65.7% (not active)
Cc1cccc(Cn2ccc(NC(=O)c3ccc4c(c3)OCO4)n2)c1 | 59.7% (not active)
O=C(Nc1c(O)cccc1-c1nc2c(C(=O)O)cccc2o1)c1cc(-c2ccccc2)on1 | 18.4% (not active)
c1ccc(-c2nc(NC3CCCCC3)cc(C3CC3)n2)nc1 | 23.7% (not active)

Structure (SMILES) | inhibition at 10 µM
COc1ccc(C(=N)N)cc1-c1cn(-c2ccc(C(=N)N)cc2)nn1 | 22.8% (not active)
N=C(N)c1ccc(-c2cc(-c3ccccc3)on2)cc1 | 26.5% (not active)
Nc1ncnc2c1c(-c1cnc3ccccc3c1)nn2CC1CCNCC1 | 4.9% (not active)
COc1cc(NC(=O)Cc2nn(C)c(=O)c3ccccc23)ccc1Cl | 90.7% (active)
COc1ccc2nc(C)cc(OCC(=O)Nc3ccccc3OC)c2c1 | 34.9% (not active)
Nc1ncc(-c2ccc(C(F)(F)F)nc2)cc1-c1ccc(C(F)(F)F)nc1 | 16.5% (not active)
COc1ccc(-c2cncc3ccc(C(=O)NCCCn4ccnc4)nc23)cc1 | 5.8% (not active)
Cc1ccc(NC(=O)CC2COc3ccccc3O2)cc1Cl (stereo not given) | 79.9% (not active)
CCn1cnc2c(Nc3cc(F)cc(F)c3)nc(C#N)nc21 | 83.2% (active)
NCC(c1cccs1)S(=O)(=O)c1ccccc1 (stereo not given) | 7.1% (not active)
CCOc1ccccc1NC(C)C(=O)Nc1cc(C(F)(F)F)ccc1N1CCOCC1 (stereo not given) | 20.8% (not active)
CCOC(=O)c1cc(-c2csc(Nc3c(C)cc(C)cc3C)n2)on1 | 33.4% (not active)
Cc1cc(C)nc(-n2nc(C)cc2Nc2ccccc2)n1 | 31.5% (not active)
Cc1ccc(NC(=O)c2cc(S(=O)(=O)NC(C)(C)C)ccc2C)nc1 | 34.7% (not active)
COC(=O)C1=C(C)NC(C)=C(C(=O)OC(C)C)C1c1cccc2nonc12 (stereo not given) [ISRADIPINE] | 48.7% (not active)
COc1ccc(Cl)cc1NC(=O)CN(C)C(=O)c1cnn(-c2ccccc2)n1 | 37.1% (not active)
O=C(Nc1nnc(S)s1)c1cc(Br)ccc1Cl | 11.5% (not active)
COC(=O)c1cccc2oc(-c3cccc(OC)c3NC(=O)c3cc(-c4ccccc4)on3)nc12 | 69.8% (not active)
COc1cccn2c(C(=O)N3CCCCC3)c(C(F)(F)F)nc12 | 17% (not active)
CNc1nnc(Sc2cnn(-c3ccccc3)c(=O)c2Cl)s1 | 50% (not active)
Cc1ccccc1C(=O)N1N=C(Nc2ccccc2)SC1(C)C | 12.6% (not active)
